The results in this text go back to patent US20240116985A1, “STAPLED PEPTIDES AND METHODS THEREOF” (priority 2020, published 2024).

SMILES strings stand for the structures. Read-outs that look alike come from different tables or passages of the source.

Series [1] deals with T1, full-length B-Catenin (Uniprot ID P35222) (Homo sapiens, UniProt P35222).
T1 construct: 65 nM full-length B-Catenin (Uniprot ID P35222)
T1 sequence (P35222 1-781): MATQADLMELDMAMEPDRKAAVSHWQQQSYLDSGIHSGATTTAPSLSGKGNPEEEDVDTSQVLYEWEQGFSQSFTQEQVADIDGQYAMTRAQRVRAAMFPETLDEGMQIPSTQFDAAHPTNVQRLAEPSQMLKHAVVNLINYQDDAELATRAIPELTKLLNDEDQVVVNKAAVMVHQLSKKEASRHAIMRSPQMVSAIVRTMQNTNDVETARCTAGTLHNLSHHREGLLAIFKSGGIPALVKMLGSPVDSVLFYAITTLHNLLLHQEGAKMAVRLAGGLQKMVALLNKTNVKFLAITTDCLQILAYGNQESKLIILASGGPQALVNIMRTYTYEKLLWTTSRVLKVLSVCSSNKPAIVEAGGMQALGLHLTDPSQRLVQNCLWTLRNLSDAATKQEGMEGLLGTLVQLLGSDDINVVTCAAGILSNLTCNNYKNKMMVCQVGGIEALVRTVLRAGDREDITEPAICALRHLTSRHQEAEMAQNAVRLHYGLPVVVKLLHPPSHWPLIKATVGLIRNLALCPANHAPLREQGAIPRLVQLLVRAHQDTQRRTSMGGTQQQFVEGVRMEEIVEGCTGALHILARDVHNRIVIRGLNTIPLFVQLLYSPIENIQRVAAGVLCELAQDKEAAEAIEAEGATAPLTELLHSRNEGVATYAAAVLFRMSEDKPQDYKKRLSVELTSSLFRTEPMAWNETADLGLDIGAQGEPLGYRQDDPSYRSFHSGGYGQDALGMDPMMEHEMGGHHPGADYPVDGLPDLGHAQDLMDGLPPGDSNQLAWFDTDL
As to the kind of experiment: Alphascreen binding assay (beta-catenin / biotin-TCF4 10-53). In outline:
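AlphaScreen (Ni-chelate beads) competition in 50 mM Tris pH 8.0, 250 mM NaCl with detergents and 0.1% BSA. Peptide titrated 10 uM–5 nM against 65 nM human β-catenin bound to 10 nM biotinylated TCF4 10-53, 15 min then 60 min with beads, both at 20 °C; 1:1 Hill-slope fit.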
On the technique in general: In Alpha technology, singlet oxygen from a donor bead excites a nearby acceptor bead.

The nature of series [2]: CHI Log D procedure. It is filed as physicochemical. The conditions noted are these: for chromatographic logD: pH 7.4, CHI Log D; for CHI Log D: pH 7.4.
Series [3] deals with T2, full-length beta-Catenin (Uniprot ID P35222) (Homo sapiens, UniProt P35222).
T2 construct: 10 nM full-length beta-Catenin (Uniprot ID P35222)
T2 sequence (P35222 1-781): T1 sequence (P35222 1-781)
As to the kind of experiment: Fluorescence polarization IC50 (beta-catenin / 5FAM-TCF4 10-53 competition). It is filed as binding. Background: In fluorescence polarisation assays a small probe gives low polarisation when free and higher when bound to something large.

[4] abbreviates: Table E2-1, read-out: beta-Catenin FP IC50.
[5] abbreviates: fluorescence polarization, beta-catenin, read-out: FP EC50.

In series [1], `CC(=O)N1CCC[C@]12CC=CCCCC1(CCCC=CCCCCCC[C@@](C)(C(=O)N[C@@H](Cc3c[nH]cn3)C(=O)N[C@@H](Cc3c[nH]c4ccccc34)C(=O)N[C@@H](CCC(N)=O)C(N)=O)NC(=O)[C@H](C(C)C)NC(=O)[C@H](Cc3ccccc3)NC(=O)[C@H](C)NC(=O)[C@H](C)NC(=O)[C@H](CC(=O)O)NC(=O)[C@H](CC(=O)O)NC1=O)NC(=O)[C@H](C)NC(=O)[C@H](CC(=O)O)NC2=O` (stereo partly drawn) [I-285, Ac-PL3-Asp-Ala-B5-Asp-Asp-Ala-Ala-Phe-Val-S8-His-Trp-Gln-NH2] returned an EC50 of 246 nM. In series [2], this compound displayed a chromatographic logD of 1.49. Moreover, the IC50 in series [3] (setting [4]) turned out to be 5000 nM.
`CC(=O)N1CCC[C@]12CC=CCCCC1(CCCC=CCCCCCC[C@@](C)(C(=O)N[C@@H](Cc3ccccc3)C(=O)N[C@@H](Cc3c[nH]c4ccccc34)C(=O)N[C@@H](CCC(N)=O)C(N)=O)NC(=O)[C@H](C)NC(=O)[C@H](Cc3ccccc3)NC(=O)[C@H](C)NC(=O)[C@H](C)NC(=O)[C@H](CC(=O)O)NC(=O)[C@H](CC(=O)O)NC1=O)NC(=O)[C@H](C)NC(=O)[C@H](CC(=O)O)NC2=O` (stereo partly drawn) [I-287, Ac-PL3-Asp-Ala-B5-Asp-Asp-Ala-Ala-Phe-Ala-S8-Phe-Trp-Gln-NH2] gave an EC50 in series [1] of 534 nM. Besides, the “CHI Log D” value in series [2] was 1.875. Besides, the IC50 in series [3] (setting [4]) and in series [3] (setting [5]) was 4950 nM in each case.
`CC(=O)N1CCC[C@]12CC=CCCCC1(CCCC=CCCCCCC[C@@](C)(C(=O)N[C@@H](Cc3ccccc3)C(=O)N[C@@H](Cc3c[nH]c4ccccc34)C(=O)N[C@@H](C)C(N)=O)NC(=O)[C@H](C(C)C)NC(=O)[C@H](Cc3ccccc3)NC(=O)[C@H](C)NC(=O)[C@H](C)NC(=O)[C@H](CC(=O)O)NC(=O)[C@H](CC(=O)O)NC1=O)NC(=O)[C@H](C)NC(=O)[C@H](CC(=O)O)NC2=O` (stereo partly drawn) [I-291, Ac-PL3-Asp-Ala-B5-Asp-Asp-Ala-Ala-Phe-Val-S8-Phe-Trp-Ala-NH2] registered an EC50 in series [1] of 327 nM. Further, in series [2], the “CHI Log D” value was 2.195. Moreover, the IC50 in series [3] (setting [4]) and in series [3] (setting [5]) was 3130 nM throughout.
Compound `CC(=O)N1CCC[C@]12CC=CCCCC1(CCCC=CCCCCCC[C@@](C)(C(=O)N[C@@H](Cc3ccccc3)C(=O)N[C@@H](Cc3c[nH]c4ccccc34)C(=O)N[C@@H](C)C(N)=O)NC(=O)[C@H](C(C)C)NC(=O)[C@H](Cc3ccccc3)NC(=O)[C@H](C)NC(=O)[C@H](C)NC(=O)[C@H](CC(=O)O)NC(=O)[C@H](CC(=O)O)NC1=O)NC(=O)[C@H](C)NC(=O)[C@H](CC(=O)O)NC2=O` (stereo partly drawn) [I-292, Ac-PL3-Asp-Ala-B5-Asp-Asp-Ala-Ala-Phe-Val-S8-Phe-Trp-Ala-NH2] came in with an EC50 in series [1] of 187 nM. The “CHI Log D” value in series [2] was found to be 2.208. For the same compound, the IC50 in series [3] (setting [4]) and in series [3] (setting [5]) was 1870 nM in each case.
As to `CC(=O)N1CCC[C@]12CC=CCCCC1(CCCC=CCCCCCC[C@@](C)(C(=O)N[C@@H](Cc3ccccc3)C(=O)N[C@@H](Cc3csc4ccccc34)C(=O)N[C@@H](CCC(N)=O)C(N)=O)NC(=O)[C@H](C(C)C)NC(=O)[C@H](Cc3ccccc3)NC(=O)[C@H](C)NC(=O)[C@H](C)NC(=O)[C@H](CN(CC(=O)O)CC(F)(F)F)NC(=O)[C@H](CC(=O)O)NC1=O)NC(=O)[C@H](C)NC(=O)[C@H](CC(=O)O)NC2=O` (stereo partly drawn) [I-293, Ac-PL3-Asp-Ala-B5-Asp-TfeGA-Ala-Ala-Phe-Val-S8-Phe-BztA-Gln-NH2], the EC50 in series [1] was 41 nM. The compound further showed a chromatographic logD in series [2] of 2.38. The IC50 in series [3] (setting [4]) is 139 nM.
On to `CC(=O)N1CCC[C@]12CC=CCCCC1(CCCC=CCCCCCC[C@@](C)(C(=O)N[C@@H](Cc3ccccc3)C(=O)N[C@@H](Cc3csc4ccccc34)C(=O)N[C@@H](CCC(N)=O)C(N)=O)NC(=O)[C@H](CCC(N)=O)NC(=O)[C@H](Cc3ccccc3)NC(=O)[C@H](C)NC(=O)[C@H](C)NC(=O)[C@H](CC(=O)O)NC(=O)[C@H](CC(=O)O)NC1=O)NC(=O)[C@H](C)NC(=O)[C@H](CC(=O)O)NC2=O` (stereo partly drawn) [I-294, Ac-PL3-Asp-Ala-B5-Asp-Asp-Ala-Ala-Phe-Gln-S8-Phe-BztA-Gln-NH2], for which the EC50 in series [1] is 40 nM. Also, in series [2], the chromatographic logD turned out to be 2. Also, the IC50 in series [3] (setting [4]) stood at 130 nM.
For `CC(=O)N1CCC[C@]12CC=CCCCC1(CCCC=CCCCCCC[C@@](C)(C(=O)N[C@@H](Cc3ccccc3)C(=O)N[C@@H](Cc3csc4ccccc34)C(=O)N[C@@H](CCC(N)=O)C(N)=O)NC(=O)[C@H](CCC(N)=O)NC(=O)[C@H](Cc3ccccc3)NC(=O)[C@H](C)NC(=O)[C@H](C)NC(=O)[C@H](Cc3ccc4ccccc4c3)NC(=O)[C@H](CC(=O)O)NC1=O)NC(=O)[C@H](C)NC(=O)[C@H](CC(=O)O)NC2=O` (stereo partly drawn) [I-295, Ac-PL3-Asp-Ala-B5-Asp-2NapA-Ala-Ala-Phe-Gln-S8-Phe-BztA-Gln-NH2], in that order: 1180 nM, 2.66 and 5000 nM.
The like results for `CC(=O)N1CCC[C@]12CC=CCCCC1(CCCC=CCCCCCC[C@@](C)(C(=O)N[C@@H](Cc3ccccc3)C(=O)N[C@@H](Cc3csc4ccccc34)C(=O)N[C@@H](C)C(N)=O)NC(=O)[C@H](CCC(N)=O)NC(=O)[C@H](Cc3ccccc3)NC(=O)[C@H](C)NC(=O)[C@H](C)NC(=O)[C@H](CC(=O)O)NC(=O)[C@H](CC(=O)O)NC1=O)NC(=O)[C@H](CCO)NC(=O)[C@H](CC(=O)O)NC2=O` (stereo partly drawn) [I-299, Ac-PL3-Asp-Hse-B5-Asp-Asp-Ala-Ala-Phe-Gln-S8-Phe-BztA-Ala-NH2] were, in that order, 189 nM, 2 and 1300 nM.
Take `CC(=O)N1CCC[C@]12CC=CCCCC1(CCCC=CCCCCCC[C@@](C)(C(=O)N[C@@H](Cc3ccccc3)C(=O)N[C@@H](Cc3c[nH]c4ccccc34)C(=O)N[C@@H](CCC(N)=O)C(N)=O)NC(=O)[C@H](C(C)C)NC(=O)[C@H](Cc3ccc(Cl)cc3)NC(=O)[C@H](C)NC(=O)[C@H](C)NC(=O)[C@H](CC(=O)O)NC(=O)[C@H](CC(=O)O)NC1=O)NC(=O)[C@H](C)NC(=O)[C@H](CC(=O)O)NC2=O` (stereo partly drawn) [I-309, Ac-PL3-Asp-Ala-B5-Asp-Asp-Ala-Ala-4C1F-Val-S8-Phe-Trp-Gln-NH2]: it took 181 nM to reach a half-maximal effect in series [1] (EC50). For the same compound, in series [2], the “CHI Log D” value came to 2.05. The IC50 in series [3] (setting [4]) and in series [3] (setting [5]) was 3120 nM throughout.
On to `CC(=O)N1CCC[C@]12CC=CCCCC1(CCCC=CCCCCCC[C@@](C)(C(=O)N[C@@H](Cc3ccccc3)C(=O)N[C@@H](Cc3c[nH]c4ccccc34)C(=O)N[C@@H](C)C(N)=O)NC(=O)[C@H](CCC(N)=O)NC(=O)[C@H](Cc3ccccc3)NC(=O)[C@H](C)NC(=O)[C@H](C)NC(=O)[C@H](CC(=O)O)NC(=O)[C@H](CC(=O)O)NC1=O)NC(=O)[C@H](C)NC(=O)[C@H](CC(=O)O)NC2=O` (stereo partly drawn) [I-316, Ac-PL3-Asp-Ala-B5-Asp-Asp-Ala-Ala-Phe-Gln-S8-Phe-Trp-Ala-NH2], for which the EC50 in series [1] worked out at 136 nM. In series [2], this compound registered a chromatographic logD of 1.91. The IC50 in series [3] (setting [4]) was determined as 3980 nM.
In series [1], `CC(=O)N1CCC[C@]12CC=CCCCC1(CCCC=CCCCCCC[C@@](C)(C(=O)N[C@@H](Cc3ccccc3F)C(=O)N[C@@H](Cc3c[nH]c4ccccc34)C(=O)N[C@@H](CCC(N)=O)C(N)=O)NC(=O)[C@H](C(C)C)NC(=O)[C@H](Cc3ccccc3)NC(=O)[C@H](C)NC(=O)[C@H](C)NC(=O)[C@H](CC(=O)O)NC(=O)[C@H](CC(=O)O)NC1=O)NC(=O)[C@H](C)NC(=O)[C@H](CC(=O)O)NC2=O` (stereo partly drawn) [I-318, Ac-PL3-Asp-Ala-B5-Asp-Asp-Ala-Ala-Phe-Val-S8-2FF-Trp-Gln-NH2] came in with an EC50 of 121 nM. Further, the “CHI Log D” value in series [2] worked out at 2.001. The IC50 in series [3] (setting [4]) and in series [3] (setting [5]) was 4630 nM each time.

As a reminder, the EC50 is the concentration needed to bring the measured effect to its halfway point. What is called chromatographic logD is a lipophilicity value derived from retention on a column. Higher therefore signals a more lipophilic compound.
